Experimental data taken from paper PMC12502564, “Evaluation of LLM-generated peptide as foundation template for discovery of effective encrypted AMPs against clinical superbugs” (Microbiology Spectrum, 2025).
No end group written: not given here.

Key:
[1] = test system: CRAB; test: MBC determination, MBC/MIC ratio; format: cell-based, carbapenem-resistant Acinetobacter baumannii; conditions: MBC/MIC ≤4 is considered bactericidal
Protocol: (§1) The MBC was determined using the microdilution broth method described above for MIC determination. After identifying the clear wells (no growth), 10 µL of the liquid from these wells was transferred and spread on a nutrient agar plate. The plate was incubated at 37°C for 18–24 h. […] The lowest concentration with no visible growth was considered the MBC.

[2] = test system: MRSA; test: MBC determination, MBC/MIC ratio; format: cell-based, methicillin-resistant Staphylococcus aureus; conditions: MBC/MIC ≤4 is considered bactericidal
Protocol: as §1

[3] = test system: CRAB; test: Time-kill curve; format: cell-based, carbapenem-resistant Acinetobacter baumannii; conditions: ~10^5 CFU mL^−1 in MH broth
Protocol: (§2) Bacteria in the logarithmic growth phase were diluted to approximately 10^5 CFU mL^−1 in MH broth and treated with peptides, polymyxin B, or vancomycin at final concentrations of 1/2 × MIC, 1 × MIC, 2 × MIC, and 4 × MIC. After the addition of the test compound, samples were taken at 0, 3, 6, 9, 12, and 24 h and serially diluted. Subsequently, 5 µL of the diluted samples were spread on agar plates and incubated at 37°C for 20 h. The bacterial concentration CFU mL^−1 at the corresponding time point of each sample was calculated based on the number of colonies on the agar plate, and the log10 (CFU mL^−1) was plotted against time (h).

[4] = test system: MRSA; test: Time-kill curve; format: cell-based, methicillin-resistant Staphylococcus aureus; conditions: ~10^5 CFU mL^−1 in MH broth
Protocol: as §2

[5] = test system: CRAB 2210186; test: Thigh infection mouse model; format: in vivo, BALB/c mice; conditions: neutropenic mice, ~1 × 10^6 CFU in thigh, i.p. at 1, 3, 5, 7 h post-infection (PL-15 10 × MIC, 100 µL; polymyxin B 20,000–25,000 U kg^−1 day^−1), n = 8
Excerpt: The WHO has classified CRAB as a “Critical Priority” pathogen in its Priority Pathogens List, recognizing it as a predominant causative agent of hospital-acquired infections ([2]). This classification reflects CRAB’s global dissemination, high mortality rates, and extreme resistance profiles. Given this critical situation, a thigh infection model was employed to evaluate the in vivo therapeutic efficacy of PL-15 against CRAB. To establish the mouse thigh infection model, mice were pre-treated intraperitoneally with cyclophosphamide 4 days and 1 day prior to bacterial inoculation to induce neutropenia, administered at doses of 150 mg kg^−1 and 100 mg kg^−1, respectively ([51]). Each mouse was then injected with approximately 10^6 colony-forming unit (CFU) of CRAB in the thigh tissue, followed by four intraperitoneal injections of PL-15, polymyxin B, or phosphate-buffered saline (PBS) within 24 h of infection (Fig. 3a).
All animal experiments were performed according to the “Principles of Laboratory Animal Care” (NIH publication No. 86-23, revised 1985) and approved by the Animal Care and Use Committee of Shandong University (LL20240622, Jinan, China). Five-week-old male BALB/c mice were purchased from Beijing Vital River Laboratory Animal Technology Co., Ltd. (Beijing, China) and kept under a 12-hour light/12-hour dark cycle, humidity of 50%, and temperature of 22°C in standard specific pathogen-free individually vented cages.
To establish the mouse thigh infection model, mice were injected intraperitoneally with cyclophosphamide 4 d and 1 d before bacterial administration, at concentrations of 150 and 100 mg kg^−1, respectively, to induce neutropenia ([51]). CRAB 2210186 cells were suspended in sterile PBS, adjusted to a concentration of ~1 × 10^6 CFU per infection site and injected into the right thighs of eight mice per treatment group. PL-15 (10 × MIC, 100 µL), polymyxin B (20,000–25,000 U kg^−1 day^−1) or PBS were administered intraperitoneally at 1, 3, 5, and 7 h post-infection. Mice were euthanized 24 h after infection, and the thigh tissues were aseptically collected, weighed, homogenized, serially diluted in PBS, and plated onto solid MCA. The CFU of CRAB 2210186 per thigh was calculated by plating dilutions of the thigh homogenates (0.25 g of thigh tissue in 10 mL sterile PBS) on agar plates and counting colonies.

[6] = test system: CRAB; test: PI assay, cytoplasmic membrane integrity; format: cell-based, carbapenem-resistant Acinetobacter baumannii; conditions: 1 × MIC, 10^8 CFU mL^−1
Protocol: PI (which is known to stain nuclear chromatin upon cell membrane disruption) assay was carried out to evaluate the ability of AMPs to disrupt the cytoplasmic membrane integrity ([63]). After CRAB was grown to the exponential phase, bacteria cells were harvested and washed three times in washing buffer of 5 mM glucose and 5 mM HEPES (1:1, pH = 7.2) and then re-adjusted to 10^8 CFU mL^−1 in the same buffer. Bacterial suspensions (150 µL/well) were loaded into black-walled, clear-bottom 96-well plates with lids. Following bacterial loading, 50 µL of 10 µM PI was introduced into each well, with 30 min pre-incubation CRAB. Post-incubation fluorescence signals were acquired using 535 nm excitation and 617 nm emission wavelengths. Compounds (10 µL) were then administered to achieve 1 × MIC/10 × MIC-equivalent final concentrations in the dye-loaded bacterial suspensions. Real-time fluorescence monitoring was performed with continuous acquisition during the first 10 min, followed by measurements at 10-min intervals. Negative controls received 10 µL sterile water in lieu of antimicrobial peptides while maintaining equivalent pre-incubation conditions. All experimental conditions were executed with three biological replicates.

[7] = test system: CRAB; test: Biofilm formation inhibition assay (crystal violet); format: cell-based, carbapenem-resistant Acinetobacter baumannii; conditions: 1/2 × MIC, 24 h, OD570
Protocol: The crystal violet staining method ([66]) was used to determine the inhibitory activity of the compounds against the biofilm formation of CRAB. The steps were as follows: prepare a bacterial solution (10^6 CFU mL^−1), mix it with different final concentrations of the compound (1/2 × MIC, 1 × MIC, 2 × MIC, and 4 × MIC), and culture it for 24 h. After discarding the supernatant, wash with PBS, add anhydrous methanol to fix the biofilm, and then stain it with crystal violet for 60 min after drying. After washing, dissolve the biofilm with 33% glacial acetic acid, and measure OD570. Three parallel experiments were performed, and the biofilm formation inhibition rate was calculated by the following formula:
(3) Biofilm formation inhibition rate (%)=(1−OD(sample)− OD(blank)/OD(negative)− OD(blank))×100%

Question: What does the source list for WLKRILKWIGNKLKW [PL-15]?
Answer: bactericidal classification by MBC/MIC ratio [1]: bactericidal effects; bactericidal classification by MBC/MIC ratio [2]: bactericidal effects; time to kill CRAB ([3]; 1/2 × MIC): ≤ 6 h; time to kill CRAB ([3]; 1 × MIC): ≤ 6 h; time to complete bacterial eradication of CRAB ([3]; 2 × MIC): ≤ 3 h; time to kill CRAB ([3]; 4 × MIC): ≤ 3 h; time to eliminate MRSA ([4]; 1/2 × MIC): ≤ 6 h; time to complete bacterial eradication of MRSA ([4]; 1 × MIC): ≤ 6 h; time to full bacterial killing of MRSA ([4]; 2 × MIC): ≤ 3 h; time to full bacterial killing of MRSA ([4]; 4 × MIC): ≤ 3 h; reduction of bacterial load compared to the PBS control group ([5]; 24 h): two orders of magnitude; bacteria eradicated in the thigh tissue within 24 h [5]: over 97%; PI fluorescence (cytoplasmic membrane integrity) [6]: stronger fluorescence signal compared to polymyxin B and control; biofilm formation inhibition [7]: moderate biofilm inhibition
